Reference: US12145944B2, “Imidazopyrimidines as EED inhibitors and the use thereof” (THE REGENTS OF THE UNIVERSITY OF MICHIGAN, priority 2019, dated 2024)
Like-named read-outs stand apart in the source and are kept apart here.

How the values were obtained:
EED (1-441)-His protein = target: T1, EED (1-441)-His protein (Homo sapiens, UniProt O75530); test: EED-H3K27Me3 peptide competition binding assay by AlphaScreen; details: EED Alpha screen binding assay, read-out: Alpha screen
T1 construct: 20 nM EED (1-441)-His protein
Protocol: “N/A” stands for “not assessed”.
EED-H3K27Me3 peptide competition binding assay by AlphaScreen (α-screen)
2.5 μl of solutions containing 20 nM biotin-H3K27Me3 (19-33) peptide in the buffer (25 mM HEPES, pH 8, 0.02% Tween-20, 0.5% BSA) were added to the wells and then incubated with compound for 30 min. […] Then 10 μl of the detection beads mix was added to the plate and incubated in the dark at RT for 1 h. The final concentration of donor and acceptor beads was 10 μg/ml for each. […] The data were then fit to a dose response equation to get the IC50 values.

[1] = system: KARPAS422 human B cell lymphoma cell; test: Cell proliferation, KARPAS422, 7 day treatment (WST-8); assay type: cell-based; details: Homo sapiens, KARPAS-422, 168 h, 7 day treatment, read-out: Karpas Cell line
In short: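 Read-out was WST-8 absorbance at 450 nm after 1-4 h with reagent, taken after 7-day compound treatment (serial dilutions, 37 °C, 5% CO2) of 2 000-3 000 KARPAS422 cells per well. IC50 fitted by nonlinear regression on DMSO-normalized values.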

Pfeiffer cell line = test: Anti-proliferative activity, Pfeiffer cell line, 7 day treatment; assay type: cell-based; details: Homo sapiens, 168 h; anti-proliferative IC50 class, Pfeiffer cell line, 7 day treatment; read-out: Pfeiffer Cell line
In short: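 Cells seeded at 2 000-3 000 per well were treated with serially diluted compounds for 7 days at 37° C, 5% CO2. Growth was measured by WST-8 assay read at 450 nm after 1-4 h reagent incubation. Readings were normalized to DMSO-treated cells and IC50 values derived by nonlinear regression.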

[2] = anti-proliferative IC50 class, Karpas 422 cell line
[3] = anti-proliferative IC50, Karpas 422 cell line

T1 sequence (O75530 whole entry): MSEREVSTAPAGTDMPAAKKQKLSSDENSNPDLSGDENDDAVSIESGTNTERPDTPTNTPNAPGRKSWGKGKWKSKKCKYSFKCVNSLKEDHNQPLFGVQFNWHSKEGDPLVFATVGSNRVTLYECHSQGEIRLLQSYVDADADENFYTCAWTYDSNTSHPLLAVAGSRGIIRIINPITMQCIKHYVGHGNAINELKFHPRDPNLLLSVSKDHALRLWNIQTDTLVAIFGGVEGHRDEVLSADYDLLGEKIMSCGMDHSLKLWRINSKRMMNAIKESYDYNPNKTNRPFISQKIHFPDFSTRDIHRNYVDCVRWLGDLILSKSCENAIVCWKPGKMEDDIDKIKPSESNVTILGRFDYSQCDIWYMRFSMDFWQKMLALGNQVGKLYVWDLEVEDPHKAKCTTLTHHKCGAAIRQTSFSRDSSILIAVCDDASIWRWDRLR

IC50 (EED (1-441)-His protein; IC50 class) [µM] | IC50 [1, 2] [µM] | IC50 (Pfeiffer cell line) [µM] | IC50 (EED (1-441)-His protein) [µM] | IC50 [1, 3] [µM] | SMILES
< 0.01 | < 0.01 | < 0.01 | – | – | Cc1ccc2c(n1)CN(CC(F)(F)F)C(=O)c1ncn3c(NCc4c(F)ccc5c4CCO5)ncc-2c13 [E 3, 12-(((5-fluoro-2,3-dihydrobenzofuran-4-yl)methyl)amino)-7-methyl-4-(2,2,2-trifluoroethyl)-4,5-dihydro-3H-2,4,6,11,12a-pentaazabenzo[4,5]cycloocta[1,2,3-cd]inden-3-one]
< 0.01 | < 0.01 | < 0.01 | – | – | Cc1ccc2c(n1)CN(CC(C)(F)F)C(=O)c1ncn3c(NCc4c(F)ccc5c4CCO5)ncc-2c13 [E 7, 4-(2,2-difluoropropyl)-12-(((5-fluoro-2,3-dihydrobenzofuran-4-yl)methyl)amino)-7-methyl-4,5-dihydro-3H-2,4,6,11,12a-pentaazabenzo[4,5]cycloocta[1,2,3-cd]inden-3-one]
< 0.01 | < 0.01 | < 0.01 | – | – | [2H]C([2H])([2H])c1ccc2c(n1)CN(CC(F)(F)F)C(=O)c1ncn3c(NCc4c(F)ccc5c4CCO5)ncc-2c13 [E 19, 12-(((5-fluoro-2,3-dihydrobenzofuran-4-yl)methyl)amino)-7-(methyl-d3)-4-(2,2,2-trifluoroethyl)-4,5-dihydro-3H-2,4,6,11,12a-pentaazabenzo[4,5]cycloocta[1,2,3-cd]inden-3-one]
< 0.01 | < 0.01 | < 0.01 | – | – | [2H]C([2H])(Nc1ncc2c3c(ncn13)C(=O)N(CC(F)(F)F)Cc1nc(C)ccc1-2)c1c(F)ccc2c1CCO2 [E 20, 12-(((5-fluoro-2,3-dihydrobenzofuran-4-yl)methyl-d2)amino)-7-methyl-4-(2,2,2-trifluoroethyl)-4,5-dihydro-3H-2,4,6,11,12a-pentaazabenzo[4,5]cycloocta[1,2,3-cd]inden-3-one]
< 0.01 | < 0.01 | < 0.01 | – | – | [2H]C([2H])([2H])c1ccc2c(n1)CN(CC(F)(F)F)C(=O)c1ncn3c(NC([2H])([2H])c4c(F)ccc5c4CCO5)ncc-2c13 [E 21, 12-(((5-fluoro-2,3-dihydrobenzofuran-4-yl)methyl-d2)amino)-7-(methyl-d3)-4-(2,2,2-trifluoroethyl)-4,5-dihydro-3H-2,4,6,11,12a-pentaazabenzo[4,5]cycloocta[1,2,3-cd]inden-3-one]
< 0.01 | < 0.01 | < 0.01 | – | – | [2H]C1Oc2ccc(F)c(C([2H])([2H])Nc3ncc4c5c(ncn35)C(=O)N(CC(F)(F)F)Cc3nc(C)ccc3-4)c2C1[2H] (stereo not shown) [E 22, 12-(((5-fluoro-2,3-dihydrobenzofuran-4-yl-2,3-d2)methyl-d2)amino)-7-methyl-4-(2,2,2-trifluoroethyl)-4,5-dihydro-3H-2,4,6,11,12a-pentaazabenzo[4,5]cycloocta[1,2,3-cd]inden-3-one]
< 0.01 | < 0.01 | < 0.01 | – | – | [2H]C1Oc2ccc(F)c(C([2H])([2H])Nc3ncc4c5c(ncn35)C(=O)N(CC(F)(F)F)Cc3nc(C([2H])([2H])[2H])ccc3-4)c2C1[2H] (stereo not shown) [E 23, 12-(((5-fluoro-2,3-dihydrobenzofuran-4-yl-2,3-d2)methyl-d2)amino)-7-(methyl-d3)-4-(2,2,2-trifluoroethyl)-4,5-dihydro-3H-2,4,6,11,12a-pentaazabenzo[4,5]cycloocta[1,2,3-cd]inden-3-one]
< 0.01 | 0.01 to 0.1 | 0.01 to 0.1 | – | – | Cc1ccc(-c2cc(C#N)c(NCc3c(F)ccc4c3CCO4)n3cnc(S(C)(=O)=O)c23)c(C)n1 [E 25, 8-(2,6-dimethylpyridin-3-yl)-5-(((5-fluoro-2,3-dihydrobenzofuran-4-yl)methyl)amino)-1-(methylsulfonyl)imidazo[1,5-a]pyridine-6-carbonitrile]
– | – | – | 0.00083 | 0.0203 | CS(=O)(=O)c1ccc(-c2cnc(NCc3c(F)ccc4c3CCO4)n3cnc(C(F)(F)F)c23)cc1 [compound 112, N-((5-fluoro-2,3-dihydrobenzofuran-4-yl)methyl)-8-(4-(methylsulfonyl)phenyl)-1-(trifluoromethyl)imidazo[1,5-c]pyrimidin-5-amine]
– | – | – | 0.00098 | > 0.1 | Fc1ccc2c(c1CNc1ncc(-c3ccc(C(F)(F)F)cc3)c3c(C(F)(F)F)ncn13)CCO2 [compound 113, N-((5-fluoro-2,3-dihydrobenzofuran-4-yl)methyl)-1-(trifluoromethyl)-8-(4-(trifluoromethyl)phenyl)imidazo[1,5-c]pyrimidin-5-amine]
– | – | – | 0.00148 | > 0.1 | Fc1ccc(-c2cnc(NCc3c(F)ccc4c3CCO4)n3cnc(C(F)(F)F)c23)cc1 [compound 114, N-((5-fluoro-2,3-dihydrobenzofuran-4-yl)methyl)-8-(4-fluorophenyl)-1-(trifluoromethyl)imidazo[1,5-c]pyrimidin-5-amine]
– | – | – | 0.00235 | 0.0501 | Cc1ccc(-c2cnc(NCc3c(F)ccc4c3CCO4)n3cnc(C(F)(F)F)c23)c(C)n1 [compound 115, 8-(2,6-dimethylpyridin-3-yl)-N-((5-fluoro-2,3-dihydrobenzofuran-4-yl)methyl)-1-(trifluoromethyl)imidazo[1,5-c]pyrimidin-5-amine]
– | – | – | 0.00198 | > 0.1 | Fc1ccc2c(c1CNc1ncc(-c3ccc(C(F)(F)F)nc3)c3c(C(F)(F)F)ncn13)CCO2 [compound 116, N-((5-fluoro-2,3-dihydrobenzofuran-4-yl)methyl)-1-(trifluoromethyl)-8-(6-(trifluoromethyl)pyridin-3-yl)imidazo[1,5-c]pyrimidin-5-amine]
– | – | – | 0.00019 | 0.0195 | CP(C)(=O)c1ncn2c(NCc3c(F)ccc4c3CCO4)ncc(-c3ccc(C(F)F)nc3)c12 [compound 117, (8-(6-(difluoromethyl)pyridin-3-yl)-5-(((5-fluoro-2,3-dihydrobenzofuran-4-yl)methyl)amino)imidazo[1,5-c]pyrimidin-1-yl)dimethylphosphine oxide]
– | – | – | 0.00027 | 0.0284 | CP(C)(=O)c1ncn2c(NCc3c(F)ccc4c3CCO4)ncc(-c3ccc(F)cc3)c12 [compound 118, (5-(((5-fluoro-2,3-dihydrobenzofuran-4-yl)methyl)amino)-8-(4-fluorophenyl)imidazo[1,5-c]pyrimidin-1-yl)dimethylphosphine oxide]
– | – | – | 0.0002 | 0.0279 | CP(C)(=O)c1ncn2c(NCc3c(F)ccc4c3CCO4)ncc(-c3ccc(C(F)(F)F)nc3)c12 [compound 119, (5-(((5-fluoro-2,3-dihydrobenzofuran-4-yl)methyl)amino)-8-(6-(trifluoromethyl)pyridin-3-yl)imidazo[1,5-c]pyrimidin-1-yl)dimethylphosphine oxide]
– | – | – | 0.00115 | > 0.1 | CCP(=O)(CC)c1ncn2c(NCc3c(F)ccc4c3CCO4)ncc(-c3ccc(C(F)(F)F)nc3)c12 [compound 120, diethyl(5-(((5-fluoro-2,3-dihydrobenzofuran-4-yl)methyl)amino)-8-(6-(trifluoromethyl)pyridin-3-yl)imidazo[1,5-c]pyrimidin-1-yl)phosphine oxide]
– | – | – | 0.00031 | > 0.1 | CCP(=O)(CC)c1ncn2c(NCc3c(F)ccc4c3CCO4)ncc(-c3ccc(C(F)(F)F)cc3)c12 [compound 121, diethyl(5-(((5-fluoro-2,3-dihydrobenzofuran-4-yl)methyl)amino)-8-(4-(trifluoromethyl)phenyl)imidazo[1,5-c]pyrimidin-1-yl)phosphine oxide]
– | – | – | 0.00031 | > 0.1 | CCP(=O)(CC)c1ncn2c(NCc3c(F)ccc4c3CCO4)ncc(-c3ccc(S(C)(=O)=O)cc3)c12 [compound 122, diethyl(5-(((5-fluoro-2,3-dihydrobenzofuran-4-yl)methyl)amino)-8-(4-(methylsulfonyl)phenyl)imidazo[1,5-c]pyrimidin-1-yl)phosphine oxide]
– | – | – | 0.00474 | 0.0229 | Cc1ccc(-c2cnc(NCc3c(F)ccc4c3CCO4)n3cnc(P(C)(C)=O)c23)c(C)n1 [compound 123, (8-(2,6-dimethylpyridin-3-yl)-5-(((5-fluoro-2,3-dihydrobenzofuran-4-yl)methyl)amino)imidazo[1,5-c]pyrimidin-1-yl)dimethylphosphine oxide]
– | – | – | 0.00804 | 0.072 | CCP(=O)(CC)c1ncn2c(NCc3c(F)ccc4c3CCO4)ncc(-c3ccc(F)cc3)c12 [compound 124, diethyl(5-(((5-fluoro-2,3-dihydrobenzofuran-4-yl)methyl)amino)-8-(4-fluorophenyl)imidazo[1,5-c]pyrimidin-1-yl)phosphine oxide]
– | – | – | 0.0276 | 0.0917 | CCP(=O)(CC)c1ncn2c(NCc3c(F)ccc4c3CCO4)ncc(-c3ccc(C)nc3C)c12 [compound 125, (8-(2,6-dimethylpyridin-3-yl)-5-(((5-fluoro-2,3-dihydrobenzofuran-4-yl)methyl)amino)imidazo[1,5-c]pyrimidin-1-yl)diethylphosphine oxide]
